Measured values as given in patent US20240124381A1, “Renewable Bio-advantaged plasticizer generated by reductive coupling of lignin-derived aromatics” (Alliance for Sustainable Energy, LLC, priority 2022, published 2024).

Columns and labels:
[1] = Glass transition temperature of plasticized PVC by differential scanning calorimetry (DSC); type: physicochemical; details: PVC composite with 10 wt % plasticizer; unplasticized PVC 83.0 ° C.; lower preferred
Excerpt: (§1) FIG. 5 provides thermal analysis of lignin-derived biaryl plasticizers. From left to right: unplasticized PVC, 10 wt % plasticized PVC with DEHP, and 10 wt % plasticized PVC with lignin-derived biaryl plasticizers.
(§2) Plasticizer properties of lignin-derived biaryls. The above results provide access to all possible homo- and cross-coupled BPDA derivatives of H, G, and S. These structures provide the basis for testing of these materials as plasticizers for PVC and comparison of their performance relative to the existing petroleum-derived incumbent, di(2-ethylhexyl)phthalate (DEHP). Each of the BPDA methyl esters was subjected to Ti(OBu)4-promoted transesterification with 2-ethylhexanol to afford the corresponding DEH-BPDA derivatives, designated H—H^PL, H-G^PL, H—S^PL, G-G^PL, G-S^PL, and S—S^PL. The thermal properties of these structures were characterized by thermogravimetric analysis (TGA) and differential scanning calorimetry (DSC). DEHP and the DEH-BPDA derivatives were then individually integrated with PVC at 10 wt %, and the composites were analyzed by TGA and DSC to identify their glass transition temperature (Tg) and the temperature at which the polymer degrades with 10% or 50% loss of its original weight (Td10, Td50). The former value reflects the ability of the plasticizer to soften PVC, while the latter values reflect the thermostability of the composite material. […]

[2] = Thermostability of plasticized PVC by thermogravimetric analysis (TGA); type: physicochemical; details: PVC composite with 10 wt % plasticizer; PVC itself 272 ° C.; higher preferred
Excerpt: as §1, §2

CCCCC(CC)COC(=O)c1ccccc1C(=O)OCC(CC)CCCC (centres unmarked) [DEHP, di(2-ethylhexyl)phthalate]
glass transition temperature (Tg) [1]: 52.1 °C | Td10 (temperature at which the polymer degrades with 10% loss of its original weight) [2]: 253 °C
